We go through 8 molecules from ChEMBL document CHEMBL1201862, “PubChem BioAssay data set” (2004).

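Cultured in 96-well plates, cells were exposed to test compound for 48 hours across five concentrations. The concentration for 50% growth inhibition is given as GI50.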 The source made the active and inactive calls. Cut-off read from the data, not from the text of the source: active = GI50 up to about 1.1 µM and inactive = higher.

Test systems include CCRF-CEM; COLO 205; DU-145; EKVX; Hs-578T; NCI/ADR-RES; OVCAR-3; OVCAR-5; OVCAR-8; SF-268; SK-MEL-5; SN12C; SNB-19; SNB-75; SW-620; T47D; TK-10; UACC-62; NCI-H226; SK-OV-3.
Assay in all cases: NCI tumour cell line growth inhibition, 48 h

Regarding `CC(C)C1(NC(=O)C2CC3c4cccc5[nH]cc(c45)CC3N(C)C2)OC2(O)C3CCCN3C(=O)C(Cc3ccccc3)N2C1=O` (stereo not drawn), the GI50 in the assay on CCRF-CEM was 5.9 µM (inactive); in the assay with COLO 205 it was 14.2 µM (inactive); in the assay on DU-145 it was 51.2 µM (inactive); with EKVX it was 30.3 µM (inactive); in the assay with Hs-578T it was 27.6 µM (inactive); in the assay on NCI/ADR-RES it was 35.4 µM (inactive). Also, the GI50 with OVCAR-3 was 16.2 µM (inactive); in the assay on OVCAR-5 it was > 100 µM (inactive); with OVCAR-8 it was 42.4 µM (inactive); with SF-268, > 100 µM (inactive); in the assay with SK-MEL-5, 27.7 µM (inactive); in the assay with SN12C, > 100 µM (inactive). The GI50 in the assay with SNB-19 was 57.7 µM (inactive); in the assay on SNB-75 it was 6.71 µM (inactive); in the assay on SW-620, 32.3 µM (inactive); in the assay with T47D it was 11.9 µM (inactive); in the assay with TK-10, 30.6 µM (inactive); in the assay on UACC-62, 65.8 µM (inactive).
On to `COc1ccc(-c2c(C#N)c(N)nc(Sc3ccccc3N)c2C#N)cc1`, for which the GI50 in the assay with CCRF-CEM was > 100 µM (inactive); with COLO 205, > 100 µM (inactive); with DU-145 it was > 47.6 µM (inactive); with EKVX it was 15.7 µM (inactive); with Hs-578T, 6.05 µM (inactive); with NCI-H226, 52.8 µM (inactive). Besides, the GI50 in the assay on NCI/ADR-RES is 7.69 µM (inactive); with OVCAR-3, 22.1 µM (inactive); in the assay with OVCAR-5, > 53.5 µM (inactive); with OVCAR-8, 8.11 µM (inactive); in the assay on SF-268, 5.77 µM (inactive); with SK-MEL-5, 28.6 µM (inactive). Also, the GI50 was 9.53 µM (inactive) in the assay on SK-OV-3; 9.66 µM (inactive) in the assay on SN12C; 16.1 µM (inactive) in the assay on SNB-19; > 90.6 µM (inactive) with SW-620; 2.82 µM (inactive) with T47D; 10.9 µM (inactive) in the assay on TK-10. In the assay on UACC-62, the GI50 is 9.46 µM (inactive).
As for `COc1cccc(N2N=C3c4ccccc4-n4c(nc5ccccc54)C3C2N)c1` (stereo not drawn), the GI50 in the assay on COLO 205, in the assay on DU-145, with EKVX, with Hs-578T, with NCI/ADR-RES and in the assay on OVCAR-3 was > 100 µM (inactive) throughout. The GI50 is 47.2 µM (inactive) in the assay on OVCAR-5; > 100 µM (inactive) in the assay on OVCAR-8; > 100 µM (inactive) with SF-268; 20.7 µM (inactive) with SK-MEL-5; > 100 µM (inactive) in the assay with SN12C; > 100 µM (inactive) in the assay with SNB-19. The GI50 in the assay with SNB-75 is > 100 µM (inactive); with SW-620, > 100 µM (inactive); with T47D, > 100 µM (inactive); in the assay on TK-10, 92.9 µM (inactive); with UACC-62, > 100 µM (inactive).
As for `O=C(c1ccccc1)c1ccc(N2C(=O)/C(=C/c3cccc(Oc4ccccc4)c3)N=C2c2ccccc2)c(N2C(=O)/C(=C/c3cccc(Oc4ccccc4)c3)N=C2c2ccccc2)c1`, the GI50 in the assay on CCRF-CEM was 8.32 µM (inactive); with COLO 205, 18 µM (inactive); with DU-145, 46.5 µM (inactive); in the assay with EKVX, 44.2 µM (inactive); with Hs-578T, 26.9 µM (inactive); in the assay with NCI/ADR-RES, 18.5 µM (inactive). Moreover, the GI50 was 18.9 µM (inactive) in the assay with OVCAR-3; 50.6 µM (inactive) with OVCAR-5; 32.1 µM (inactive) in the assay on OVCAR-8; 36.3 µM (inactive) in the assay with SF-268; 13.3 µM (inactive) in the assay with SK-MEL-5; 42.9 µM (inactive) with SK-OV-3. Further, the GI50 with SN12C was 92.3 µM (inactive); in the assay on SNB-19, 38.5 µM (inactive); in the assay with SNB-75, 23.9 µM (inactive); in the assay with SW-620 it was 30.7 µM (inactive); in the assay on T47D, 30.7 µM (inactive); with TK-10 it was 25.5 µM (inactive). For the same molecule, in the assay with UACC-62, the GI50 is 11.9 µM (inactive).
Consider `CC(CCc1ccccc1)NCC(O)n1c(/N=N/N(C)C)nc2c1c(=O)n(C)c(=O)n2C` (stereo not drawn), for which the GI50 in the assay on CCRF-CEM, in the assay on COLO 205, in the assay on EKVX, with Hs-578T, in the assay with NCI-H226 and with NCI/ADR-RES was > 100 µM (inactive) each time. In addition, the GI50 in the assay on OVCAR-3 was > 100 µM (inactive); in the assay with OVCAR-5, > 100 µM (inactive); in the assay with OVCAR-8, > 100 µM (inactive); in the assay on SF-268, > 100 µM (inactive); with SK-MEL-5, 78.7 µM (inactive); with SK-OV-3, > 100 µM (inactive). Besides, the GI50 with SNB-19 is > 100 µM (inactive); with SNB-75, 9.62 µM (inactive); in the assay on SW-620, > 100 µM (inactive); in the assay with T47D it was > 100 µM (inactive); in the assay with TK-10, > 100 µM (inactive); in the assay on UACC-62, > 100 µM (inactive).
Consider `CCO/C(=N/S(=O)(=O)C(F)(F)F)N(C(C)C)C(C)C`, for which the GI50 with CCRF-CEM, with COLO 205, in the assay on DU-145, with EKVX, with Hs-578T and in the assay on NCI/ADR-RES was > 100 µM (inactive) each time. The GI50 in the assay on OVCAR-5, in the assay on OVCAR-8, in the assay on SF-268, in the assay on SK-MEL-5, in the assay on SN12C and in the assay with SNB-19 was > 100 µM (inactive) each time. The GI50 with SW-620, in the assay with T47D, in the assay on TK-10 and in the assay on UACC-62 was > 100 µM (inactive) throughout.
On to `OCCCCCCOc1ccc(-c2cc(-c3ccccn3)nc(-c3ccccn3)c2)cc1`, for which the GI50 was 0.026 µM (active) in the assay with CCRF-CEM; 0.372 µM (active) in the assay with COLO 205; 0.0716 µM (active) in the assay on DU-145; 0.18 µM (active) with EKVX; 0.419 µM (active) in the assay on Hs-578T; 0.104 µM (active) in the assay on NCI-H226. Besides, the GI50 with OVCAR-3 was 0.22 µM (active); in the assay on OVCAR-5 it was 0.489 µM (active); in the assay with OVCAR-8 it was 0.136 µM (active); with SF-268 it was 0.0668 µM (active); in the assay on SK-MEL-5, 0.243 µM (active); with SK-OV-3, 0.211 µM (active). For the same molecule, the GI50 is 0.424 µM (active) with SN12C; 0.158 µM (active) in the assay on SNB-19; 0.637 µM (active) in the assay with SNB-75; 0.367 µM (active) with SW-620; 0.148 µM (active) with T47D; 0.357 µM (active) with TK-10. The GI50 in the assay on UACC-62 is 0.149 µM (active).
Take `CCn1c(-c2ccccc2)nc2c1C(=O)c1ccccc1C2=O`: the GI50 was 18.4 µM (inactive) in the assay on CCRF-CEM; 14.1 µM (inactive) in the assay with COLO 205; 28.1 µM (inactive) in the assay on DU-145; 27.2 µM (inactive) with Hs-578T; 24.4 µM (inactive) in the assay on NCI-H226; 13.3 µM (inactive) in the assay with NCI/ADR-RES. Further, the GI50 in the assay on OVCAR-3 was 5.89 µM (inactive); in the assay with OVCAR-5, 32.9 µM (inactive); in the assay with OVCAR-8 it was 14 µM (inactive); in the assay on SK-MEL-5 it was 11.2 µM (inactive); with SK-OV-3 it was 20.6 µM (inactive); with SN12C it was 20.7 µM (inactive). The GI50 was 32.8 µM (inactive) in the assay on SNB-19; 32.1 µM (inactive) in the assay on SW-620; 2.22 µM (inactive) in the assay with T47D; 36.2 µM (inactive) with TK-10; 15.8 µM (inactive) in the assay on UACC-62.
